Values quoted from earlier work as cited in US9980903B2, “Gastric retentive oral dosage form with restricted drug release in the lower gastrointestinal tract” (Depomed, Inc., priority 2001, dated 2018).

Conditions: presently available immediate release dosage form

time at which maximum serum concentration is attained after dosing: 1 to 2 h
Structure (SMILES): O=C(O)c1cn(C2CC2)c2cc(N3CCNCC3)c(F)cc2c1=O [Ciprofloxacin, 1-cyclopropyl-6-fluoro-1,4-dihydro-4-oxo-7-(1-piperazinyl)-3-quinolinecarboxylic acid]
